Data from paper PMC9884089 (Journal of Medicinal Chemistry, 2023).
Read-outs that look alike come from different tables or passages of the source.

Experiments:
PARP2 = target: T1, PARP2 (Homo sapiens, UniProt Q9UGN5); experiment: biochemical; type: biochemical; details: > = less than 50% inhibition at highest concentration; ≫ = no inhibition; read-out: PARP2 IC50
T1 construct: made in house

TNKS2 [1] = target: T2, TNKS2 (Homo sapiens, UniProt Q9H2K2); experiment: biochemical; details: read-out: TNKS2 IC50; > = less than 50% inhibition at highest concentration
T2 sequence (Q9H2K2 1-1166): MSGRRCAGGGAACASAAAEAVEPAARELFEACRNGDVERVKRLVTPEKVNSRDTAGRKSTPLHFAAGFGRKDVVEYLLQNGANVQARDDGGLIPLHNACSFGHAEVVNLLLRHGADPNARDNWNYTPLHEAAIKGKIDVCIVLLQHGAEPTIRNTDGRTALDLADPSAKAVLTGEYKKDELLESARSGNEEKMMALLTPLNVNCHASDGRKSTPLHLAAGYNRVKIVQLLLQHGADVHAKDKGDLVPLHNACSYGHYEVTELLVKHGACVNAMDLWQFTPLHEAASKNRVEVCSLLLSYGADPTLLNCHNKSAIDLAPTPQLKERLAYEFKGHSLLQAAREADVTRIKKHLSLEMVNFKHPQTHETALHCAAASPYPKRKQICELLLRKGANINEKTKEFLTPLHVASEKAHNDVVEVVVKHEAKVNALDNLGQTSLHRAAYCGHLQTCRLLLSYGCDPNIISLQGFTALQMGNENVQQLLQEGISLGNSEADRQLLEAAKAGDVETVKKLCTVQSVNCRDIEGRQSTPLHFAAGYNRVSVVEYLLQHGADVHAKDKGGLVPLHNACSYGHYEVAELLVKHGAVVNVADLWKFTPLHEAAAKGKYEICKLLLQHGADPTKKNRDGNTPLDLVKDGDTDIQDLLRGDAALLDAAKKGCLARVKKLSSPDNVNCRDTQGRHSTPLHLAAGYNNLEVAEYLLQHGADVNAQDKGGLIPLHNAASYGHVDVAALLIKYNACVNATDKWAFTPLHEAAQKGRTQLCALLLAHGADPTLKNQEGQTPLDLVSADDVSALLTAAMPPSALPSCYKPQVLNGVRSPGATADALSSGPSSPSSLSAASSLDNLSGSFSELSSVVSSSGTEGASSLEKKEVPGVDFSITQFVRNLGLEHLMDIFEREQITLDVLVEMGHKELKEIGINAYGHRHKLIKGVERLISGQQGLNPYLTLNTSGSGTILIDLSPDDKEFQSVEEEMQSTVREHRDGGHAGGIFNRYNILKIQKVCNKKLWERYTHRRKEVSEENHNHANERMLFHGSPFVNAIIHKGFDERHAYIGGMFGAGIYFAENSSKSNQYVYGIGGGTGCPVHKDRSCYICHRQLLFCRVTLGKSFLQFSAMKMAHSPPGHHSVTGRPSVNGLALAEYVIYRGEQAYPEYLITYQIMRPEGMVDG
Experimental: The proteins used in Tables 1–3 were produced as described earlier. Dockerin constructs to allow enhanced activity assays for mono-ARTs (Table 4) were produced in Escherichia coli with an N-terminal maltose binding protein (MBP) and a C-terminal dockerin domain from Hungateiclostridium thermocellum Cel48s as described recently.[47]
Inhibition experiments were performed using a homogenous assay measuring NAD+ consumption.[80]−[82] Reactions were carried out in quadruplicate, and IC50 curves were fitted using sigmoidal dose response curve (four variables) in GraphPad Prism version 8.02. […] Assay conditions for PARP2, TNKS2, PARP10, and PARP15 (Tables 1–3) were recently reported.[44] The conditions for the proximity-enhanced mono-ART assays (Table 4) were also reported recently.[47] PARP6 (400 nM) inhibition was measured using the standard buffer (50 mM sodium phosphate pH 7.0) for the enhanced activity assay using 500 nM NAD^+ and 18 h incubation in r.t..

PARP10 [2] = target: T3, PARP10 (Homo sapiens, UniProt Q53GL7); experiment: biochemical; type: biochemical
T3 construct: made in house
T3 sequence (Q53GL7 1-1025): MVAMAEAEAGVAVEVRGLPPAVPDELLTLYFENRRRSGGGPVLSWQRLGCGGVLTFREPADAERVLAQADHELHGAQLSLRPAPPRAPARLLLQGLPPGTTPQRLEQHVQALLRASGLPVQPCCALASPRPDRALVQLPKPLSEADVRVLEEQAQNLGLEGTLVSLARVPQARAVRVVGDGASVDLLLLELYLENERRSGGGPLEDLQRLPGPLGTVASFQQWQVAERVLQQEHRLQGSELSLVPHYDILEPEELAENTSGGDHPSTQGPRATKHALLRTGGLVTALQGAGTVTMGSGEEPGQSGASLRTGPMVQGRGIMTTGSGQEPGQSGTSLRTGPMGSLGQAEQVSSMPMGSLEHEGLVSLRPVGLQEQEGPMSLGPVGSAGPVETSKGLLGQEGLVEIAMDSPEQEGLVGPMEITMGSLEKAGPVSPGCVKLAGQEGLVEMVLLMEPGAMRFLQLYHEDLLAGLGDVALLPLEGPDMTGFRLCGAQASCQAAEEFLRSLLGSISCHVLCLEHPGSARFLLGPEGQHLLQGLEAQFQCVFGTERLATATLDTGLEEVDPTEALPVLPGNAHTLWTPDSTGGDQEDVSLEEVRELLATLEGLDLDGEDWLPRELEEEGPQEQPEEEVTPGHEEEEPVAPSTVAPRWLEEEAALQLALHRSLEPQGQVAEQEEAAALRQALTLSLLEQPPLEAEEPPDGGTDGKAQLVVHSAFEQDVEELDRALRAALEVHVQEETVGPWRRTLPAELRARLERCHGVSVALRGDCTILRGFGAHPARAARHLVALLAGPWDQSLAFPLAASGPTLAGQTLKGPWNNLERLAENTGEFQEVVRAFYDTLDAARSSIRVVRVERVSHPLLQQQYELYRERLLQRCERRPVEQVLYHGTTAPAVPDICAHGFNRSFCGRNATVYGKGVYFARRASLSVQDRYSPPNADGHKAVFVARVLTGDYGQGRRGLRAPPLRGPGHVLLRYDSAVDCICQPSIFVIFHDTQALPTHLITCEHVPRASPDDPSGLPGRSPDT

PARP15 = target: T4, PARP15 (Homo sapiens, UniProt Q460N3); experiment: biochemical; type: biochemical
T4 construct: made in house
T4 sequence (Q460N3 1-678): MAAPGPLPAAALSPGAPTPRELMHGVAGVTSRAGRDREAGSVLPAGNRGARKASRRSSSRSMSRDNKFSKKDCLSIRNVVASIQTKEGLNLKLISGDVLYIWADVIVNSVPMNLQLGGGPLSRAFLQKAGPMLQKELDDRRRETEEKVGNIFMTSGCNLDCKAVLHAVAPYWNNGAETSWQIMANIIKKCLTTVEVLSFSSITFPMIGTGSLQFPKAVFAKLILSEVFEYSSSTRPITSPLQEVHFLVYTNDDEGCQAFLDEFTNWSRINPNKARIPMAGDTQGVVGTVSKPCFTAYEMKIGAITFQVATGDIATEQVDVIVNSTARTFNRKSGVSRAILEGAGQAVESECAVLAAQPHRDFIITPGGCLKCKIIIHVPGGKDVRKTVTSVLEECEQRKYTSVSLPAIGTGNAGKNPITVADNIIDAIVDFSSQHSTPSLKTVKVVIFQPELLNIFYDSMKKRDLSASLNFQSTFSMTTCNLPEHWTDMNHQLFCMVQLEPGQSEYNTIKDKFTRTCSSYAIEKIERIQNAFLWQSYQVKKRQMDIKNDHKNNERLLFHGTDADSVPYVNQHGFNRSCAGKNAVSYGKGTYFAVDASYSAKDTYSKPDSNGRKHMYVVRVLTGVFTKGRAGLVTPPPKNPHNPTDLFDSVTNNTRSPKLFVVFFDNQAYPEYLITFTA

HEK293T cells = experiment: Cell viability assay (colorimetric WST-1); type: cell-based, human; details: HEK293T, 100, 50 and 10 μM, 24 h
Experimental: Cell viability was assessed by colorimetric WST-1 (Cellpro-Roche, Sigma-Aldrich) assay following manufacturer’s instructions. […] Also, DMSO and 10 mM hydroxyurea (Sigma) were used as internal controls for induced cell toxicity. […] Thereafter, WST-1 reagent was pipetted followed by 2 h incubation and absorbance measuring by a Tecan Infinite M1000 or a Tecan Spark (Tecan) plate reader. The assay was performed in triplicate and repeated at least three times. Data were normalized to DMSO control.

TNKS1/2 = details: Figure 1; cited from earlier work
PARP11 = details: Figure 1 ref 42; cited from earlier work
TNKS2 [3] = details: Figure 1 ref 19; cited from earlier work
PARP10 [4] = target: T3, PARP10; experiment: Cellular MARylation assay (immunoblot of PARP10 auto-MARylation); type: cell-based; details: 10 μM, 16 h, HeLa cells
Experimental: Cells were lysed in RIPA lysis buffer [10 mM Tris pH 7.4; 150 mM NaCl; 1% NP-40; 1% desoxycholate; 0,1% SDS; protease inhibitor cocktail (Sigma-Aldrich) and 10 μM olaparib (Selleck Chemicals)], and lysates were analyzed via SDS-PAGE and immunoblotting using specific anti-PARP10 (Eurogentec),[93] anti-MAR/PAR (Cell Signaling, E6F6A, anti-poly/Mono-ADP-ribose antibody), and anti-α-tubulin (B 5-1-2, Sigma-Aldrich) antibodies.

PARP10 [5] = details: Figure 1 ref 35; cited from earlier work
PARP7 = details: Figure 1 ref 40; cited from earlier work
[6] = standard assay (Tables 1-3), * value limited by the protein concentration used, > less than 50% inhibition, ≫ no inhibition at the concentration, read-out: PARP15 IC50

T1 sequence (Q9UGN5 whole entry): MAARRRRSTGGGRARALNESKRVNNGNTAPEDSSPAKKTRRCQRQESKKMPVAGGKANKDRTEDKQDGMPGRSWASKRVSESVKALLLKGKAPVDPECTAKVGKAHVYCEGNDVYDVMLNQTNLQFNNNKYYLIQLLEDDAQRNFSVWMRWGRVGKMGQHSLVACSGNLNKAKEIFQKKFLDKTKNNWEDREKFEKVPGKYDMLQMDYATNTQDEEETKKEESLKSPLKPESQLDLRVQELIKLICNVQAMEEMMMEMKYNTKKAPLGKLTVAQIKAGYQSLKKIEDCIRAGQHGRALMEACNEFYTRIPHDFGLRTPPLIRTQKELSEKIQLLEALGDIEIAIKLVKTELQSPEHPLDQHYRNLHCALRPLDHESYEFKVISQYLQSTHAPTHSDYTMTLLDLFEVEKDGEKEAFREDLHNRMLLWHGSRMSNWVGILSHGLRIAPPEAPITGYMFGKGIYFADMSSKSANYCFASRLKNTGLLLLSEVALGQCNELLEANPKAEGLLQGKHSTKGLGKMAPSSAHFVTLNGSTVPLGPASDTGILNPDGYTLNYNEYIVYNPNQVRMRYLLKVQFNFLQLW

With `c1ccc2c(c1)sc1nncn12` [Compound 2] the IC50 (PARP2) was 5.3 µM, the IC50 (TNKS2 [1]) was 2.5 µM and the IC50 (PARP10 [2]; standard assay (Tables 1-3), * value limited by the protein concentration used, > less than 50% inhibition, ≫ no inhibition at the concentration, read-out: PARP10 IC50) was over 10 µM. The IC50 (PARP15; [6]) was over 10 µM.
With `CC(C)c1ccc2c(c1)sc1nncn12` [Compound 6, 7-Isopropyl[1,2,4]triazolo[3,4-b][1,3]benzothiazole] the IC50 (PARP2) was 4.5 µM, the IC50 (TNKS2 [1]) was 9.5 µM and the “cell toxicity (WST-1)” value (HEK293T cells) was “toxic in a dose-dependent manner”.
With `Oc1ccc(O)c2c1sc1nncn12` [Compound 18, [1,2,4]Triazolo[3,4-b][1,3]benzothiazol-5,8-diol] the IC50 (PARP2) was 0.24 µM, the IC50 (TNKS2 [1]) was 3.1 µM and the “cell toxicity (WST-1)” value (HEK293T cells) was “toxic in a dose-dependent manner”.
With `COc1ccc(OC)c2c1sc1nnc(SC)n12` [Compound 28] the IC50 (PARP10 [2]) was over 10 µM and the IC50 (PARP15) was over 10 µM.
Molecule `COc1ccc(OC)c2c1sc1nnc(NC(=O)c3ccc(Cl)cc3)n12` [Compound 29] has an IC50 (PARP10 [2]) of over 10 µM and an IC50 (PARP15; [6]) of 7.9 µM.
In the case of `O=c1[nH]nc2c3c(cccc13)N=C(CN1Cc3ccccc3C1)N2` [E7449], the IC50 (TNKS1/2) is listed as 0.05 µM.
For `CC#Cc1ccc2c(=O)[nH]c(CSc3ncccn3)nc2c1C` [ITK7], the IC50 (PARP11) is listed as 0.014 µM.
For `CCOc1ccc(-c2nnc([C@H]3C[C@H](NC(=O)c4cccc5c4NCCN5)C3)n2-c2ccccc2F)nc1` [OM-153], the IC50 (TNKS2 [3]) is listed as 0.002 µM.
For `NC(=O)c1ccc(Oc2ccc(C(N)=O)cc2)cc1` [OUL35, reference compound], the “inhibition of auto-MARylation of overexpressed PARP10 in cells” value (PARP10 [4]) was “did not observe a MAR-signal”.
For `NC(=O)c1ccc(OCC2CCC2)cc1` [OUL238], the IC50 (PARP10 [5]) is given as 0.29 µM.
